Key:
[1] = target: T1, neutrophil elastase (NE) (Homo sapiens, UniProt P08246); set-up: method as in Gilmore et al. (2009); conditions: ref Gilmore et al. (2009); cited from earlier work
T1 construct: purchased Calbiochem
T1 sequence (P08246 30-267): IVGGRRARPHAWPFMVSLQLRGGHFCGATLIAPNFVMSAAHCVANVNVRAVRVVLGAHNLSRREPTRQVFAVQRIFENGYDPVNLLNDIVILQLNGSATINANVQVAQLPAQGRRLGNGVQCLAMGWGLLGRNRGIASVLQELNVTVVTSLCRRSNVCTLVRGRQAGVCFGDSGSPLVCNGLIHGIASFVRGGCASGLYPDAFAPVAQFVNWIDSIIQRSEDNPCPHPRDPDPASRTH

[2] = target: T2, plasmin (Homo sapiens, UniProt P00747); assay: Activity-based profiling of plasmin (SDS-PAGE, streptavidin-HRP western blot); format: binding; conditions: 50 μM, 30 min, 37°C
T2 construct: purchased Sigma-Aldrich (supplement); R&D Systems; host or cells: human plasma
Description: (§1) Samples of recombinant protease (trypsin, plasmin, thrombin, chymotrypsin, or HNE, as indicated in the relevant figure legends) were treated with each of the newly synthesized compounds at a concentration of 50 μM, for 30 min, at 37°C. A control sample (no ABP) was prepared by treating the recombinant protease with solvent vehicle (DMF) only, used to prepare the stock solution of each ABP. Samples were also pre-treated (±90°C for 30 min) before being incubated with each putative ABP. With trypsin and thrombin, further samples were prepared where Z-Arg^P-(OPh)2 or NAP559, respectively, was added 30 min prior to the addition of the ABP under examination. All treated samples were then denatured with SDS containing reducing treatment buffer (10 min at 95°C), followed by resolution by SDS-PAGE and subjected to Western blotting. Resolved proteins were then transferred onto the nitrocellulose membrane and labeled with streptavidin-HRP. The ABP–protease complex was then visualized following treatment with Luminata Forte HRP substrate.
FIGURE 8 Activity Based Profiling of Trypsin-like serine proteases. (A) trypsin was treated (±) with NAP830, for 30 min, at 37°C (± pretreatment with Z-Arg^P-(OPh)2). (B) thrombin (1 […]) was pre-treated with various concentrations of NAP559 (30 min, at 37°C) followed by treatment (±) with NAP858 for 30 min, at 37°C. (C) Plasmin was treated in turn with QUBTL1, NAP962 and NAP830, (± pre-heat inactivation at 95°C, for 10 min) for 30 min, at 37°C. […]
(§2) Following transfer, the extra protein binding sites on the membrane were blocked by addition of 3% (w/v) BSA in TBST (20 mM Tris, 137 mM NaCl, 1% (v/v) Tween 20, pH 7.6) and agitated gently at room temperature for 30 minutes. The biotin-labelled proteases were then detected by addition of Streptavidin-HRP (Vector Laboratories) in 3% (w/v) BSA in TBST at a concentration of 1:20000, for 1 hour at room temperature. […]

[3] = target: T2, plasmin; set-up: method as in Martin and Walker (2017); conditions: mean ± SD (n=2), ref Martin and Walker (2017); cited from earlier work
[4] = target: T3, trypsin (Sus scrofa, UniProt P00761); assay: Activity-based profiling of trypsin (SDS-PAGE, streptavidin-HRP western blot); format: binding, porcine; conditions: added 30 min prior to NAP830
T3 construct: purchased Sigma-Aldrich; host or cells: porcine pancreas
Description: as §1, with “The ABP–protease complex was then visualized following treatment with Luminata Forte HRP substrate.” left out
as §2

T2 sequence (P00747 581-810 limits assumed): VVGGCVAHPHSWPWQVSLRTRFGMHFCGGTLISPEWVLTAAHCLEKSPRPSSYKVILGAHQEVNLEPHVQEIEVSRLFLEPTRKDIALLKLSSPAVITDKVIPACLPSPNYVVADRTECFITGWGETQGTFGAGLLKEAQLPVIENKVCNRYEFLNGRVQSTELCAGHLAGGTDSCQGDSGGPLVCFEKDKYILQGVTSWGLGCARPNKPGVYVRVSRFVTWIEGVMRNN
T2 sequence (P00747 97-580 partner limits assumed): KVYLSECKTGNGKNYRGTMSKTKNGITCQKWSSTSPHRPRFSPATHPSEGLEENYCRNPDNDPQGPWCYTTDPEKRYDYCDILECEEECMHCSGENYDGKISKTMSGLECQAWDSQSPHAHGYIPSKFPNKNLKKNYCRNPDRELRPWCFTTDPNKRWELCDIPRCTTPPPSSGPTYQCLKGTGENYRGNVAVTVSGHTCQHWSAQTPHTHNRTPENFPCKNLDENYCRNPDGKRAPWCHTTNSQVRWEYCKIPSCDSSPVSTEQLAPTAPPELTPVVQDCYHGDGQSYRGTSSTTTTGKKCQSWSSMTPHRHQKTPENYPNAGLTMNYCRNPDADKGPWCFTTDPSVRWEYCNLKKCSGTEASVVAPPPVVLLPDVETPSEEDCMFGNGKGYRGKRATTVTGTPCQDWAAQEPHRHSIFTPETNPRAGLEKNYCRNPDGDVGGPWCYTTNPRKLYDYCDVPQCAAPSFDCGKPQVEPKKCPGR
T3 sequence (P00761 9-231): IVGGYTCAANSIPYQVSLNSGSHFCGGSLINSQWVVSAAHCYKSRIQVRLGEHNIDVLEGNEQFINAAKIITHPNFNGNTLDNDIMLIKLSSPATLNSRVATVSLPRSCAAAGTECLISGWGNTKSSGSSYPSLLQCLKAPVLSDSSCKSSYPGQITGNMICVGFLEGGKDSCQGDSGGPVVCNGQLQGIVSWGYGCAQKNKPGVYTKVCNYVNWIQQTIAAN

Question: With “biotin-PEG-succinyl-Val^P-(OPh)2 [QUBEL1]” as the molecule, how does the “k 3 / K i” value [1] read?
Answer: 215 M⁻¹ s⁻¹

Question: What does the source list for `N=C(N)NCCCC(NC(=O)CCC(=O)NCCCOCCOCCOCCCNC(=O)CCCCC1SCC2NC(=O)NC21)P(=O)(Oc1ccccc1)Oc1ccccc1` (stereo not drawn) [QUBTL1, biotin-PEG-succinyl-arginine diphenyl phosphonate]?
Answer: labelling of plasmin by ABP (western blot) [2]: failed to detect any plasmin band; Ki [3]: 89 nM; k 3 [3]: 0.3 (± 0.05) min^−1; k 3 / K i [3]: 3.1 (± 0.2) × 10^6 M^−1 min^−1

Question: With `NC(N)=NCCCC(NC(=O)OCc1ccccc1)P(=O)(Oc1ccccc1)Oc1ccccc1` (stereo not drawn) [Z-Arg^P-(OPh)2, reference compound] as the molecule, how does the “effect of pre-treatment of trypsin on signal detected by NAP830” value [4] read?
Answer: quenching/diminution in the signal detected by NAP830

— publication PMC9555310, “Novel inhibitors and activity-based probes targeting serine proteases” (Frontiers in Chemistry, 2022)
